Earlier results in patent publication US7205335B2, “Preparation of cis-fused 3,3a,8,12b-tetrahydro-2H-dibenzo[3,4:6,7]cyclohepta[1,2-b]furan derivatives” (priority 2001, dated 2007).

Conditions: dose of 300 mg/kg

In the case of CNCC1CC2c3ccccc3Cc3ccccc3C2O1.O=C(O)C(=O)O (racemic) [(±)-3,3a,8,12b-tetrahydro-N-methyl-2H-dibenzo[3,4:6,7]-cyclohepta-[1,2-b]furan-2-methanamine oxalic acid], the “activity as an antidepressant” value is listed as “inactive”.
